Series [1] concerns Rattus norvegicus. Conditions: oral.
For series [2], the system named is Mus musculus. Conditions: short-term, duration: 28 days, oral, gavage, F, B6C3F1.
In series [3] the test system is Rattus norvegicus. To be noted: subchronic, duration: 56 days, oral, diet, M, Sprague-Dawley.
Series [4] concerns Mus musculus. To be noted: acute; oral.
Series [5] concerns Rattus norvegicus. To be noted: subchronic; duration: 13 weeks; oral; gavage; M/F; Fischer 344; Deaths + Clinical Observation: Hunched posture Ruffled fur Lethargy Decreased appetite Impaired breathing + Body Weight Changes: decrease + ….
Setting [6] is: reproduction developmental, M/F, Increased incidence of hepatocellular changes including fatty change and vacuolation (M) increased susceptibility to stress factors (F).
Where [7] appears, read: Liver: Liver Weight, Relative + Thymus: CD8+ Cell Count.
Where [8] appears, read: Spleen: Spleen Weight, Relative + Whole Body: Body Weight Change.
Setting [9] is: subchronic, duration: 90 days, diet, M/F, increased male spleen weight and che depression (females).
Where [10] appears, read: developmental, M/F, reduced pup weight.
The mark [11] stands for this setting: subchronic, M/F, clinical sign (e.g., hunched postures) and reduced body weight.
[12] abbreviates: chronic, duration: 2 years, diet, M/F, hematological effects (females).
[13] abbreviates: chronic, duration: 2 years, diet, M/F, reduced body weight, increased bun.
[14] abbreviates: chronic, duration: 2 years, diet, M/F, reduced body weight gain (males) increased food and water consumption (males) and females.
[15] abbreviates: developmental, M/F, reduced body weight in parents and pups during lactation.

Each structure is given as a SMILES string. Where “and” joins values, the source holds several entries; their conditions need not be identical. Identical values can stand only once.

In the series with Rattus norvegicus [1] (setting [6]), `CC(C)C(O)(c1ccc(OC(F)(F)F)cc1)c1cncnc1` (configuration not stated) [Flurprimidol] gave an LEL of 7.3 mg/kg-day and an NOEL of 1.8 mg/kg-day.
Consider `CCNS(=O)(=O)C(F)(F)C(F)(F)C(F)(F)C(F)(F)C(F)(F)C(F)(F)C(F)(F)C(F)(F)F` [N-Ethylperfluorooctanesulfonamide], for which the LEL in the series with Mus musculus [2] (setting [7]) is 1 mg/kg-day; in the series on Mus musculus [2] (Spleen: Plaque Forming Cell (PFC) Response + Uterus: Uterus Weight, Relative), 0.3 mg/kg-day; in the series with Mus musculus [2] (setting [8]), 10 mg/kg-day; in the series with Rattus norvegicus [3] (Whole Body: Body Weight Change), 6.82 mg/kg-day and 5.7 mg/kg-day. Also, the NEL was 0.3 mg/kg-day in the series on Mus musculus [2] (setting [7]); 10 mg/kg-day with Mus musculus [2] (Spleen: B Cell Proliferation + Spleen: B220+ Cell Count + Spleen: CD4-/CD8- Cell Count + Spleen: CD4+ Cell Count + Spleen: CD4+/CD8+ Cell …); 3 mg/kg-day with Mus musculus [2] (setting [8]); 6.82 mg/kg-day and 5.7 mg/kg-day with Rattus norvegicus [3] (Whole Body: Clinical Observations).
One may read the LD50 as the dose expected to kill half of the subjects tested. The molecule `CCCCCCCCCCCCCCCCCC(=O)[O-].CCCCCCCCCCCCCCCCCC(=O)[O-].[Ba+2]` [Octadecanoic acid, barium salt] gave an LD50 in the series on Mus musculus [4] of 1830 mg/kg.
In the series with Rattus norvegicus [1] (setting [9]), `CC(C)OC(=O)Nc1ccccc1` [Propham] had an LEL of 100 mg/kg-day and an NOEL of 50 mg/kg-day.
As for `C=C(C)[C@H]1Cc2c(ccc3c2O[C@@H]2COc4cc(OC)c(OC)cc4[C@@H]2C3=O)O1` [Rotenone], in the series with Rattus norvegicus [1] (setting [10]), the LEL was found to be 1.88 mg/kg-day and the NOEL came out at 0.38 mg/kg-day.
What is called LOAEL is the lowest tested level that showed an adverse finding. The term NOAEL denotes the highest tested level that showed no adverse finding. In the series with Rattus norvegicus [1] (setting [11]), `[N-]=[N+]=[N-].[Na+]` [Sodium azide] showed an LOAEL of 10 mg/kg-day and a no-observed-adverse-effect level (NOAEL) of 5 mg/kg-day. Moreover, the NOEL with Rattus norvegicus [5] is < 1.25 mg/kg-day.
Take `CCNc1nc(NC(C)(C)C)nc(SC)n1` [Terbutryn]: in the series with Rattus norvegicus [1] (setting [12]), the LEL was 15 mg/kg-day and the NOEL was determined as 0.1 mg/kg-day.
In the series with Rattus norvegicus [1] (setting [13]), `CCN(CC)C(=O)SCc1ccc(Cl)cc1` [Thiobencarb] displayed an LEL of 5 mg/kg-day and an NOEL of 1 mg/kg-day.
`CC1(C)[C@H](C(=O)O[C@H](C#N)c2cccc(Oc3ccccc3)c2)[C@@H]1C(Br)C(Br)(Br)Br` (some centres not stated) [Tralomethrin]: in the series with Rattus norvegicus [1] (setting [14]), the LEL was 3 mg/kg-day and the NOEL came out at 0.75 mg/kg-day. Further, in the series on Rattus norvegicus [1] (setting [15]), the LEL is 3 mg/kg-day and the NOEL turned out to be 0.75 mg/kg-day.
`[O]=[V](=[O])[O][V](=[O])=[O]` [Vanadium oxide (V2O5)] came in with a no observed adverse effect level (NOAEL) in the series with Rattus norvegicus [1] (chronic, reduced hair cystine) of 0.89 mg/kg-day.
